Tests used:
[1] = target: Phosphatidylinositol 4,5-bisphosphate 3-kinase catalytic subunit alpha isoform (Homo sapiens) (UniProt P42336); details: Compound concentration 1000.0 nM
[2] = target: RAC-gamma serine/threonine-protein kinase (Homo sapiens) (UniProt Q9Y243); details: Compound concentration 1000.0 nM
[3] = target: Ephrin type-B receptor 3 (Homo sapiens) (UniProt P54753); details: Compound concentration 1000.0 nM
[4] = target: Hormonally up-regulated neu tumor-associated kinase (Homo sapiens) (UniProt P57058); details: Compound concentration 1000.0 nM
[5] = target: Serine/threonine-protein kinase LATS1 (Homo sapiens) (UniProt O95835); details: Compound concentration 1000.0 nM
[6] = target: Mitogen-activated protein kinase 8 (Homo sapiens) (UniProt P45983); details: Compound concentration 1000.0 nM
[7] = target: Myosin light chain kinase (Homo sapiens) (UniProt Q32MK0); details: Compound concentration 1000.0 nM
[8] = target: Inhibitor of nuclear factor kappa-B kinase subunit beta (Homo sapiens) (UniProt O14920); details: Compound concentration 1000.0 nM
[9] = target: 1-phosphatidylinositol 3-phosphate 5-kinase (Homo sapiens) (UniProt Q9Y2I7); details: Compound concentration 1000.0 nM
[10] = target: Serine/threonine-protein kinase Nek11 (Homo sapiens) (UniProt Q8NG66); details: Compound concentration 1000.0 nM
[11] = target: Mitogen-activated protein kinase kinase kinase 1 (Homo sapiens) (UniProt Q13233); details: Compound concentration 1000.0 nM
[12] = target: Casein kinase I isoform gamma-3 (Homo sapiens) (UniProt Q9Y6M4); details: Compound concentration 1000.0 nM
[13] = target: Serine/threonine-protein kinase tousled-like 2 (Homo sapiens) (UniProt Q86UE8); details: Compound concentration 1000.0 nM
[14] = target: Tyrosine-protein kinase SYK (Homo sapiens) (UniProt P43405); details: Compound concentration 1000.0 nM
[15] = target: Mitogen-activated protein kinase kinase kinase 6 (Homo sapiens) (UniProt O95382); details: Compound concentration 1000.0 nM
[16] = system: Hepatocyte growth factor receptor (Homo sapiens), P08581 [Y1235D]; details: Compound concentration 1000.0 nM
[17] = target: Ephrin type-B receptor 6 (Homo sapiens) (UniProt O15197); details: Compound concentration 1000.0 nM
[18] = target: Mitogen-activated protein kinase 4 (Homo sapiens) (UniProt P31152); details: Compound concentration 1000.0 nM
[19] = target: 5'-AMP-activated protein kinase catalytic subunit alpha-2 (Homo sapiens) (UniProt P54646); details: Compound concentration 1000.0 nM
Chain of 5'-AMP-activated protein kinase catalytic subunit alpha-2 (Homo sapiens) (P54646 whole entry, looked up): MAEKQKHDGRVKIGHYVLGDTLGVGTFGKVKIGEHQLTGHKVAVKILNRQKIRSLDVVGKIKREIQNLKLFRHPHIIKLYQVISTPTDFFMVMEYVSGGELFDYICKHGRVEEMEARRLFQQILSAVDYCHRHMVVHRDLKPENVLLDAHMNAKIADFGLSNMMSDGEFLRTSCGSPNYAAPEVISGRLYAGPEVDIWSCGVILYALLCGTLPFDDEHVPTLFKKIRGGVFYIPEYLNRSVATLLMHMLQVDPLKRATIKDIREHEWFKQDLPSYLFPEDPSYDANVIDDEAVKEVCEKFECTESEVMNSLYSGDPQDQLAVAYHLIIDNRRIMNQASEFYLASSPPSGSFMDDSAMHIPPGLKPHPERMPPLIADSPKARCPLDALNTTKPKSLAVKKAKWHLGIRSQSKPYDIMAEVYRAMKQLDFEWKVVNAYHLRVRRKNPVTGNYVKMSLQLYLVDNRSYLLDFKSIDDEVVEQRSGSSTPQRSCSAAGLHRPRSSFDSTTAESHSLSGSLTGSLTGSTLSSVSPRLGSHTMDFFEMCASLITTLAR

[20] = target: 5-hydroxytryptamine receptor 3A (Homo sapiens) (UniProt P46098); details: Compound concentration 10.0 uM
[21] = target: Serine/threonine-protein kinase NLK (Homo sapiens) (UniProt Q9UBE8); details: Compound concentration 1000.0 nM
Chain of Serine/threonine-protein kinase NLK (Homo sapiens) (Q9UBE8 whole entry, canonical isoform): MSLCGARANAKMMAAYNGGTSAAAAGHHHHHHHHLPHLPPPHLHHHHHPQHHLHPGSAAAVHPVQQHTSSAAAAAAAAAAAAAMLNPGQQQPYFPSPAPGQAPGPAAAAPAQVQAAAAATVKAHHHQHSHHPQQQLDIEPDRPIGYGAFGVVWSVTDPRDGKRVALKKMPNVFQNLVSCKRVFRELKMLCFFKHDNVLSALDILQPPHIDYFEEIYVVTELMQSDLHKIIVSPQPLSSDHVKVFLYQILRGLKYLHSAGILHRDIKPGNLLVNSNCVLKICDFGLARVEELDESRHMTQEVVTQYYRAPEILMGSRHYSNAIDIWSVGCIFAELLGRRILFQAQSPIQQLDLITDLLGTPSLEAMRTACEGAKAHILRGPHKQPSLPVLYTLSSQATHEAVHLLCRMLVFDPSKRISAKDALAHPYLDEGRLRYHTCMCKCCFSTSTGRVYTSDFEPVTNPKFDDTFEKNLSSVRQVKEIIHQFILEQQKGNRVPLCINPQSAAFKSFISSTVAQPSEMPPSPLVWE

[22] = target: Phosphorylase b kinase gamma catalytic chain, skeletal muscle/heart isoform (Homo sapiens) (UniProt Q16816); details: Compound concentration 1000.0 nM
Chain of Phosphorylase b kinase gamma catalytic chain, skeletal muscle/heart isoform (Homo sapiens) (Q16816 whole entry, looked up, canonical isoform): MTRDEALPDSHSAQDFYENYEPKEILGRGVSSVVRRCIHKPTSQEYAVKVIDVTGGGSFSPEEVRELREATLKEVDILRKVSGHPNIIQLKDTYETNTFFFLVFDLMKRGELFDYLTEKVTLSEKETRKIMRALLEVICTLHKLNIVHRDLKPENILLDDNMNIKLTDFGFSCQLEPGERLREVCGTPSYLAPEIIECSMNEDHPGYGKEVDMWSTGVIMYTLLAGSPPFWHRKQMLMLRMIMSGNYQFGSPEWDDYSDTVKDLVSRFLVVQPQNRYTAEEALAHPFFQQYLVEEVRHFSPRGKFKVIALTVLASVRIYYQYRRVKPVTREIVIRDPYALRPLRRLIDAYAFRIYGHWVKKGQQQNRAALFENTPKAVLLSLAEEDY

[23] = target: Alpha-2B adrenergic receptor (Homo sapiens) (UniProt P18089); details: Compound concentration 10.0 uM
[24] = target: Serine/threonine-protein kinase D3 (Homo sapiens) (UniProt O94806); details: Compound concentration 1000.0 nM
Chain of Serine/threonine-protein kinase D3 (Homo sapiens) (O94806 whole entry): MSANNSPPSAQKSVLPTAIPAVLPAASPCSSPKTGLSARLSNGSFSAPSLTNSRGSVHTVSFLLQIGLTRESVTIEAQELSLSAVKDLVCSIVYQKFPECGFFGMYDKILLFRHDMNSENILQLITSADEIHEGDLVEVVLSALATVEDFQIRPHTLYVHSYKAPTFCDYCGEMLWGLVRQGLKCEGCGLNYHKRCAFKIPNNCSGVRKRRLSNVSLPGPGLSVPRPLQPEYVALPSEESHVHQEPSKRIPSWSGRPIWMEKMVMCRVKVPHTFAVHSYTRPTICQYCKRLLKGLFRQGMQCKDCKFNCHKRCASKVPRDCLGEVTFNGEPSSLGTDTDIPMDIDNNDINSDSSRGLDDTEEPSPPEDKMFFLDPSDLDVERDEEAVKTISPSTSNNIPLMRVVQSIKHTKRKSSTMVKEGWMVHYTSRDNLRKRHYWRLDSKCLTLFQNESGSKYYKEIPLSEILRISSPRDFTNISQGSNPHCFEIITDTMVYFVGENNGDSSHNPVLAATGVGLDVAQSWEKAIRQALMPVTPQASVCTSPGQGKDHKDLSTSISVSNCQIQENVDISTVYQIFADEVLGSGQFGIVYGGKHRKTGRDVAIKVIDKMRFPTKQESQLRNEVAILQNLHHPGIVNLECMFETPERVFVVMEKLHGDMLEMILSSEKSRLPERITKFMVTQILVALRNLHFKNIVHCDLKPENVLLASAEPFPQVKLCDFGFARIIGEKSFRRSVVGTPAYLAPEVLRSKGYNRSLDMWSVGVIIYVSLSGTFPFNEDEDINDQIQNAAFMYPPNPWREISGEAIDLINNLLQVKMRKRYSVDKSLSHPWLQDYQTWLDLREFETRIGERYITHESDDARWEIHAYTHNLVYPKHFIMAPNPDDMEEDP

[25] = target: BDNF/NT-3 growth factors receptor (Homo sapiens) (UniProt Q16620); details: Compound concentration 1000.0 nM
[26] = target: Death-associated protein kinase 3 (Homo sapiens) (UniProt O43293); details: Compound concentration 1000.0 nM
[27] = target: Phosphatidylinositol 4-phosphate 5-kinase type-1 alpha (Homo sapiens) (UniProt Q99755); details: Compound concentration 1000.0 nM
[28] = target: Serine/threonine-protein kinase B-raf (Homo sapiens) (UniProt P15056); details: Compound concentration 1000.0 nM
[29] = target: Myosin light chain kinase 2, skeletal/cardiac muscle (Homo sapiens) (UniProt Q9H1R3); details: Compound concentration 1000.0 nM
Chain of Myosin light chain kinase 2, skeletal/cardiac muscle (Homo sapiens) (Q9H1R3 whole entry, the tested form may be a part): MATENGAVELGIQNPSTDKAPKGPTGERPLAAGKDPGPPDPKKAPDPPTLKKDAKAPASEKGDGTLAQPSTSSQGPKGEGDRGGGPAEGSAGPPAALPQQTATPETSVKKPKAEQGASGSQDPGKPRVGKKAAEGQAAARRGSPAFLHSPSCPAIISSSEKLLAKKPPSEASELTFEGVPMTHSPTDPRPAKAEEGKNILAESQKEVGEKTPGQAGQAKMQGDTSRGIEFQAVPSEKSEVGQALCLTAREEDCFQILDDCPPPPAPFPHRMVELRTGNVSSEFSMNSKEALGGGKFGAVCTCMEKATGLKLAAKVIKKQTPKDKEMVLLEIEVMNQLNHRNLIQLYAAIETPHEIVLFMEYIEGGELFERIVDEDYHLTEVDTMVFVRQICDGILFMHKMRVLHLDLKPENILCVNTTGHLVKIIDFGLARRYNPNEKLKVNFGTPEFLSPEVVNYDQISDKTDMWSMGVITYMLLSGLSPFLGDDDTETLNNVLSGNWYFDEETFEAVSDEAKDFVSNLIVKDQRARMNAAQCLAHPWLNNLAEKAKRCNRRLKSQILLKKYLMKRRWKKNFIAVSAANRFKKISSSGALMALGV

[30] = target: LIM domain kinase 2 (Homo sapiens) (UniProt P53671); details: Compound concentration 1000.0 nM
[31] = target: Serine/threonine-protein kinase 17A (Homo sapiens) (UniProt Q9UEE5); details: Compound concentration 1000.0 nM
[32] = target: Ephrin type-A receptor 8 (Homo sapiens) (UniProt P29322); details: Compound concentration 1000.0 nM
[33] = target: Cytoplasmic tyrosine-protein kinase BMX (Homo sapiens) (UniProt P51813); details: Compound concentration 1000.0 nM
[34] = target: Kappa-type opioid receptor (Homo sapiens) (UniProt P41145); details: Compound concentration 10.0 uM
[35] = target: Ephrin type-B receptor 4 (Homo sapiens) (UniProt P54760); details: Compound concentration 1000.0 nM
[36] = target: Alpha-2C adrenergic receptor (Homo sapiens) (UniProt P18825); details: Compound concentration 10.0 uM
[37] = target: Phosphatidylinositol 4,5-bisphosphate 3-kinase catalytic subunit delta isoform (Homo sapiens) (UniProt O00329); details: Compound concentration 1000.0 nM
[38] = target: Serine/threonine-protein kinase LATS2 (Homo sapiens) (UniProt Q9NRM7); details: Compound concentration 1000.0 nM
[39] = target: Cyclin-dependent kinase 11B (Homo sapiens) (UniProt P21127); details: Compound concentration 1000.0 nM
[40] = target: MAP/microtubule affinity-regulating kinase 3 (Homo sapiens) (UniProt P27448); details: Compound concentration 1000.0 nM
[41] = target: Serine/threonine-protein kinase D2 (Homo sapiens) (UniProt Q9BZL6); details: Compound concentration 1000.0 nM
Chain of Serine/threonine-protein kinase D2 (Homo sapiens) (Q9BZL6 whole entry): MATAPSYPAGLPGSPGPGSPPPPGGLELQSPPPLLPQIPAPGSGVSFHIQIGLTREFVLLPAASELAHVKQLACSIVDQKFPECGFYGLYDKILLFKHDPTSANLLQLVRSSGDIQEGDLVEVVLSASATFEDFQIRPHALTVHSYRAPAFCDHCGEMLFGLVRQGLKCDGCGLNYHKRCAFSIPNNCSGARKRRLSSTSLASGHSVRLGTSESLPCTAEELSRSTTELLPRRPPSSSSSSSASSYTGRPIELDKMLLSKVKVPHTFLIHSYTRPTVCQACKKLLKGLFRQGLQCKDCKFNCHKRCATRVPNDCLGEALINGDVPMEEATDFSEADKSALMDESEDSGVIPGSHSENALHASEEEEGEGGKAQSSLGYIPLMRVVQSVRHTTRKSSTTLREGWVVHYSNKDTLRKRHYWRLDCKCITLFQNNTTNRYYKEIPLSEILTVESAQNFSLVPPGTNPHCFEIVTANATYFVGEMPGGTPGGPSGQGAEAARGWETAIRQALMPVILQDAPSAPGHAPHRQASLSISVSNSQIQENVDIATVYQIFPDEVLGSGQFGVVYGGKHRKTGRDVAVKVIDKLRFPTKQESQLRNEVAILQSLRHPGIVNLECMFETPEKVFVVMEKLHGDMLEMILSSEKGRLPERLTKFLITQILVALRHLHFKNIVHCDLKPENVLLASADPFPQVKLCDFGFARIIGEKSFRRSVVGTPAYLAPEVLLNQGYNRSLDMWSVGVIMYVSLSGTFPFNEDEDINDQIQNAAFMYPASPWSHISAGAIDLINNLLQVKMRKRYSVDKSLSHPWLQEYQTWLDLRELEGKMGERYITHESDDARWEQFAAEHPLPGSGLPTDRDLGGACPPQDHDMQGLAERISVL

[42] = target: Casein kinase II subunit alpha' (Homo sapiens) (UniProt P19784); details: Compound concentration 1000.0 nM
[43] = target: Tyrosine-protein kinase BTK (Homo sapiens) (UniProt Q06187); details: Compound concentration 1000.0 nM
[44] = target: Protein-tyrosine kinase 2-beta (Homo sapiens) (UniProt Q14289); details: Compound concentration 1000.0 nM
Chain of Protein-tyrosine kinase 2-beta (Homo sapiens) (Q14289 whole entry, looked up): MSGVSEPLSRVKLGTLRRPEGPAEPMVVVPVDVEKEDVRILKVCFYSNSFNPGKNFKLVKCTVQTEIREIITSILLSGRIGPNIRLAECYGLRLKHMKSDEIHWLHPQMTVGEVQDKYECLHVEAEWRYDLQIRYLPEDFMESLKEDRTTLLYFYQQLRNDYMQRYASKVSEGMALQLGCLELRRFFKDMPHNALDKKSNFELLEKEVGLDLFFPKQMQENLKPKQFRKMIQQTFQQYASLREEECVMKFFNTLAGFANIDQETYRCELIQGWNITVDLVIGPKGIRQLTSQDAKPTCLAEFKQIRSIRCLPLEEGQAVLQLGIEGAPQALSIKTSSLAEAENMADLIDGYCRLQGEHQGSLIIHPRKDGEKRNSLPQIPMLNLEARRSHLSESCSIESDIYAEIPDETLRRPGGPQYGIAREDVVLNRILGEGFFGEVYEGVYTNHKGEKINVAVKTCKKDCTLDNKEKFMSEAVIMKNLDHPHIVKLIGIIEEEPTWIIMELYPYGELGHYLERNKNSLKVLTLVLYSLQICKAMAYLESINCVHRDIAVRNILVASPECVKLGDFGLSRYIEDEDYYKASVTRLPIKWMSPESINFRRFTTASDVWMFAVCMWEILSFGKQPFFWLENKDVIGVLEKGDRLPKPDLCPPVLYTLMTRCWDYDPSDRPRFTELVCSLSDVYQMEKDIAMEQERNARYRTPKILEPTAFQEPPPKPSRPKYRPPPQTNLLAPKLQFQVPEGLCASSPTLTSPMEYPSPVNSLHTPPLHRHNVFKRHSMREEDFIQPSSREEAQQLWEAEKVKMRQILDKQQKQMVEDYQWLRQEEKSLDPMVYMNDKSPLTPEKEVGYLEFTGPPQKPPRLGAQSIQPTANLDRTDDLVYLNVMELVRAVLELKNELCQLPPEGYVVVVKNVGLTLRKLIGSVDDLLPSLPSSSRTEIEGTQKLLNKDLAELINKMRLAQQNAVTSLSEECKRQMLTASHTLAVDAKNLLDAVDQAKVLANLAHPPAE

[45] = target: Rhodopsin kinase GRK7 (Homo sapiens) (UniProt Q8WTQ7); details: Compound concentration 1000.0 nM

COc1cc(-c2cn([C@H]3CCc4c(F)cccc4N(CC(F)(F)F)C3=O)nn2)ccc1-n1cnc(C)c1
inactive: residual activity [1] 94% | residual activity [2] 100% | residual activity [3] 100% | residual activity [4] 100% | residual activity [5] 93% | residual activity [6] 52% | residual activity [7] 92% | residual activity [8] 100% | residual activity [9] 100% | residual activity [10] 100% | residual activity [11] 100% | residual activity [12] 86% | residual activity [13] 100% | residual activity [14] 100% | residual activity [15] 98% | residual activity [16] 100% | residual activity [17] 100% | residual activity [18] 89% | residual activity [19] 100% | inhibition [20] -8% | residual activity [21] 100% | residual activity [22] 78% | inhibition [23] 31.1% | residual activity [24] 100% | residual activity [25] 92% | residual activity [26] 100% | residual activity [27] 100% | residual activity [28] 100% | residual activity [29] 100% | residual activity [30] 100% | residual activity [31] 100% | residual activity [32] 100% | residual activity [33] 100% | inhibition [34] 7.19% | residual activity [35] 100% | inhibition [36] 38.3% | residual activity [37] 100% | residual activity [38] 100% | residual activity [39] 95% | residual activity [40] 100% | residual activity [41] 100% | residual activity [42] 100% | residual activity [43] 100% | residual activity [44] 100% | residual activity [45] 100%

COc1cc(-c2cn([C@H]3CCc4ccccc4N(CC(F)(F)F)C3=O)nn2)ccc1-n1ccc(C)n1
inactive: residual activity [1] 69% | residual activity [2] 89% | residual activity [3] 100% | residual activity [4] 100% | residual activity [5] 71% | residual activity [6] 55% | residual activity [7] 100% | residual activity [8] 99% | residual activity [9] 100% | residual activity [10] 99% | residual activity [11] 72% | residual activity [12] 86% | residual activity [13] 97% | residual activity [14] 100% | residual activity [15] 53% | residual activity [16] 93% | residual activity [17] 100% | residual activity [18] 99% | residual activity [19] 71% | inhibition [20] -9.73% | residual activity [21] 100% | residual activity [22] 80% | inhibition [23] 7.14% | residual activity [24] 100% | residual activity [25] 93% | residual activity [26] 100% | residual activity [27] 96% | residual activity [28] 100% | residual activity [29] 73% | residual activity [30] 100% | residual activity [31] 100% | residual activity [32] 100% | residual activity [33] 100% | inhibition [34] 13.6% | residual activity [35] 92% | inhibition [36] 9.04% | residual activity [37] 100% | residual activity [38] 69% | residual activity [39] 100% | residual activity [40] 100% | residual activity [41] 86% | residual activity [42] 84% | residual activity [43] 82% | residual activity [44] 100% | residual activity [45] 87%
